In the NIST ThermoML archive (doi:10.1016/j.fluid.2018.05.028):

Test: xn = mol fraction of the nth substance listed
Conditions: 101 kPa, Liquid; for viscosity: Concentric cylinders viscometry; for speed of sound: Single path-length method; for mass density: Vibrating tube method

CCCCCCCCCCCCCCCC [hexadecane] + CCCCO
Conditions	mass density [kg/m3]	speed of sound [m/s]	viscosity [mPa·s]
293.15 K, x2 = 0	773.35	1357.4	3.408
293.15 K, x2 = 0.1	773.9	1349.6	3.204
293.15 K, x2 = 0.2	774.92	1343.3	3.109
293.15 K, x2 = 0.3	776.24	1336.8	2.998
293.15 K, x2 = 0.4	777.91	1329.7	2.935
293.15 K, x2 = 0.5	780.07	1322	2.9
293.15 K, x2 = 0.6	782.88	1313.4	2.854
293.15 K, x2 = 0.7	786.53	1303.1	2.874
293.15 K, x2 = 0.8	791.49	1290.7	2.875
293.15 K, x2 = 0.9	798.54	1275.4	2.856
298.15 K, x2 = 0	769.87	1338.5	3.035
298.15 K, x2 = 0.1	770.35	1330.6	2.852
298.15 K, x2 = 0.2	771.34	1324.4	2.77
298.15 K, x2 = 0.3	772.63	1317.9	2.675
298.15 K, x2 = 0.4	774.28	1310.8	2.616
298.15 K, x2 = 0.5	776.41	1303.2	2.578
298.15 K, x2 = 0.6	779.18	1294.7	2.535
298.15 K, x2 = 0.7	782.81	1284.7	2.543
298.15 K, x2 = 0.8	787.73	1272.7	2.541
298.15 K, x2 = 0.9	794.77	1257.8	2.52
303.15 K, x2 = 0	766.4	1319.8	2.708
303.15 K, x2 = 0.1	766.82	1311.8	2.544
303.15 K, x2 = 0.2	767.77	1305.6	2.471
303.15 K, x2 = 0.3	769.03	1299.1	2.387
303.15 K, x2 = 0.4	770.64	1292.1	2.332
303.15 K, x2 = 0.5	772.74	1284.6	2.294
303.15 K, x2 = 0.6	775.47	1276.2	2.249
303.15 K, x2 = 0.7	779.07	1266.4	2.246
303.15 K, x2 = 0.8	783.97	1254.7	2.244
303.15 K, x2 = 0.9	790.97	1240.2	2.219
308.15 K, x2 = 0	762.95	1301.3	2.432
308.15 K, x2 = 0.1	763.28	1293.2	2.283
308.15 K, x2 = 0.2	764.19	1287	2.217
308.15 K, x2 = 0.3	765.42	1280.5	2.144
308.15 K, x2 = 0.4	766.99	1273.5	2.092
308.15 K, x2 = 0.5	769.05	1266.1	2.053
308.15 K, x2 = 0.6	771.75	1257.8	2.012
308.15 K, x2 = 0.7	775.31	1248.2	2.001
308.15 K, x2 = 0.8	780.17	1236.8	1.992
308.15 K, x2 = 0.9	787.14	1222.8	1.967
313.15 K, x2 = 0	759.49	1283.1	2.199
313.15 K, x2 = 0.1	759.74	1274.9	2.064
313.15 K, x2 = 0.2	760.61	1268.5	2.004
313.15 K, x2 = 0.3	761.8	1262.1	1.939
313.15 K, x2 = 0.4	763.33	1255.1	1.89
313.15 K, x2 = 0.5	765.35	1247.7	1.851
313.15 K, x2 = 0.6	768.01	1239.6	1.811
313.15 K, x2 = 0.7	771.52	1230.1	1.794
313.15 K, x2 = 0.8	776.34	1219	1.781
313.15 K, x2 = 0.9	783.27	1205.5	1.755
318.15 K, x2 = 0	756.05	1265	1.996
318.15 K, x2 = 0.1	756.2	1256.7	1.871
318.15 K, x2 = 0.2	757.02	1250.3	1.815
318.15 K, x2 = 0.3	758.17	1243.8	1.756
318.15 K, x2 = 0.4	759.66	1236.9	1.709
318.15 K, x2 = 0.5	761.63	1229.5	1.67
318.15 K, x2 = 0.6	764.24	1221.4	1.631
318.15 K, x2 = 0.7	767.71	1212.1	1.613
318.15 K, x2 = 0.8	772.49	1201.3	1.593
318.15 K, x2 = 0.9	779.38	1188.2	1.564
323.15 K, x2 = 0	752.61	1247.1	1.823
323.15 K, x2 = 0.1	752.66	1238.6	1.707
323.15 K, x2 = 0.2	753.42	1232.1	1.654
323.15 K, x2 = 0.3	754.53	1225.7	1.6
323.15 K, x2 = 0.4	755.97	1218.8	1.556
323.15 K, x2 = 0.5	757.89	1211.4	1.517
323.15 K, x2 = 0.6	760.45	1203.4	1.479
323.15 K, x2 = 0.7	763.86	1194.2	1.452
323.15 K, x2 = 0.8	768.59	1183.6	1.435
323.15 K, x2 = 0.9	775.44	1171	1.404
328.15 K, x2 = 0	749.18	1229.3	1.671
328.15 K, x2 = 0.1	749.13	1220.8	1.563
328.15 K, x2 = 0.2	749.82	1214.2	1.514
328.15 K, x2 = 0.3	750.87	1207.7	1.464
328.15 K, x2 = 0.4	752.26	1200.8	1.422
328.15 K, x2 = 0.5	754.13	1193.4	1.383
328.15 K, x2 = 0.6	756.63	1185.4	1.346
328.15 K, x2 = 0.7	759.99	1176.4	1.317
328.15 K, x2 = 0.8	764.66	1166	1.297
328.15 K, x2 = 0.9	771.46	1153.8	1.264
333.15 K, x2 = 0	745.74	1211.8	1.537
333.15 K, x2 = 0.1	745.58	1203.1	1.437
333.15 K, x2 = 0.2	746.2	1196.3	1.389
333.15 K, x2 = 0.3	747.19	1189.8	1.343
333.15 K, x2 = 0.4	748.53	1182.9	1.303
333.15 K, x2 = 0.5	750.34	1175.6	1.266
333.15 K, x2 = 0.6	752.78	1167.6	1.23
333.15 K, x2 = 0.7	756.08	1158.7	1.199
333.15 K, x2 = 0.8	760.69	1148.5	1.177
333.15 K, x2 = 0.9	767.42	1136.6	1.143
338.15 K, x2 = 0	742.31	1194.4	1.421
338.15 K, x2 = 0.1	742.04	1185.5	1.328
338.15 K, x2 = 0.2	742.57	1178.7	1.282
338.15 K, x2 = 0.3	743.51	1172.1	1.238
338.15 K, x2 = 0.4	744.78	1165.2	1.2
338.15 K, x2 = 0.5	746.53	1157.9	1.163
338.15 K, x2 = 0.6	748.9	1149.9	1.127
338.15 K, x2 = 0.7	752.13	1141	1.095
338.15 K, x2 = 0.8	756.66	1131	1.071
338.15 K, x2 = 0.9	763.33	1119.5	1.036
343.15 K, x2 = 0	738.88	1177.5	1.316
343.15 K, x2 = 0.1	738.5	1168.3	1.23
343.15 K, x2 = 0.2	738.94	1161.2	1.185
343.15 K, x2 = 0.3	739.8	1154.6	1.144
343.15 K, x2 = 0.4	741.01	1147.7	1.107
343.15 K, x2 = 0.5	742.68	1140.3	1.071
343.15 K, x2 = 0.6	744.98	1132.3	1.037
343.15 K, x2 = 0.7	748.13	1123.5	1.004
343.15 K, x2 = 0.8	752.59	1113.6	0.9782
343.15 K, x2 = 0.9	759.19	1102.4	0.9425
